The values below are quoted from earlier work in US20130244874A1, “Waterless Composition Comprising Pesticide and Copolymers with Sulfonic Acid Groups” (BASF SE, priority 2010, published 2013).

≈ marks a conversion by molar mass, not a printed value. Where only a bound is given, the exact number is not on record here.

As to `O=C1CCCO1` [Solvent G, gamma-butyrolactone], the miscibility with water result (solvent) is recorded as “infinitely miscible with water”.
With `Cn1cc(C(=O)Nc2ccccc2-c2cc(F)c(F)c(F)c2)c(C(F)F)n1` [Fluxapyroxad, reference compound], the solubility in water (20° C.) was 3.8 mg/L (≈ 9.97 µM).
Regarding `CC(C)CCCCCCOC(=O)C1CCCCC1C(=O)OCCCCCCC(C)C` (stereo not shown) [Solvent C, Diisononyl 1,2-cyclohexanedicarboxylate], the water-soluble (solvent, temperature not given) is under 0.02 mg/L.
With `C[S+](C)[O-]` [Solvent E, DMSO], the miscibility with water result (solvent) was “infinitely miscible with water”.
